Here are results for 22 compounds from PubChem BioAssay (NCI).

Common to all, as to experiment: NCI tumour cell line growth inhibition, 48 h
The subject of assay [1] is MDA-MB-435.
The test system of assay [2] is MDA-MB-231 breast.
Assay [3] concerns BT-549 breast.
Assay [4] deals with MDA-N.
Assay [5] concerns DMS 114 small cell lung.

Each structure is given as a SMILES string. Several values for one entry are separate records, joined by “and”; a condition that tells them apart may be missing. Equal entries are not always repeated.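 Step 1: Grow cells in 96-well plates. Step 2: Expose to compound for 48 hours at 5 concentrations. Step 3: Interpolate endpoints linearly; if unreached, use highest concentration. The concentration for 50% growth inhibition is given as GI50. At the TGI there is no net growth.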 Bounds are passed on as bounds.

As for `O=C(Nc1cccc(C(F)(F)F)c1)Nc1cc(S(=O)(=O)NC2CC2)ccc1-c1ccsc1`, the GI50 in assay [1] is 3.61 µM; in assay [2], 3.43 µM. Also, the TGI in assay [1] came to 13.1 µM; in assay [2], 14.8 µM.
As to `Cc1ccc(S(=O)(=O)NCc2cccc([N+](=O)[O-])c2)cc1`, the TGI in assay [1], in assay [2], in assay [3] and in assay [4] was over 100 µM throughout.
Turning to `C=CCCC1(CCP(=O)(c2ccccc2)c2ccccc2)OCCO1`, the TGI in assay [1], in assay [2], in assay [3] and in assay [4] was over 100 µM throughout.
Take `Oc1ccc(/C=N/Nc2nnc(N/N=C/c3ccc(O)cc3O)c3ccccc23)c(O)c1`: the GI50 in assay [1] was 0.587 µM; in assay [2], 1.35 µM; in assay [3] it was 0.399 µM. Moreover, the TGI in assay [1] was 3.67 µM; in assay [2], over 46.2 µM; in assay [3], 0.581 µM and 1.94 µM; in assay [4] it was 0.93 µM.
For the compound `CC(C)C12CCC3(CCC4C(C)(C(=O)O)CCCC4(C)C3C1)C(CN)C2` (stereo not given), the TGI in assay [1] was over 100 µM; in assay [2], over 100 µM; in assay [3], 95.5 µM; in assay [4], 84 µM.
Regarding `Clc1ccc(N=CNc2ccc(-c3nc4ccccc4[nH]3)cc2)cc1`, the values for the GI50 in assay [1], in assay [2] and in assay [3] were 6.88 µM, over 100 µM and 20.7 µM, respectively. In addition, the TGI in assay [1] was over 100 µM; in assay [2], over 100 µM; in assay [3], 57.3 µM.
Turning to `COc1cc([C@H]2c3cc(O)c(OC)cc3C[C@]3(O)[C@@H]2CO[C@@H]3O)ccc1O`, the TGI in assay [1], in assay [2], in assay [3] and in assay [4] was over 100 µM in each case.
On to `COC(=O)C(NC(=O)c1ccccc1)c1ccc(OC)c(I)c1` (stereo not given), for which the GI50 was 39.6 µM in assay [1], 27.2 µM in assay [2] and over 100 µM in assay [3]. For the same compound, the TGI in assay [1], in assay [2] and in assay [3] was over 100 µM throughout.
As for `Cc1cccc(Cc2cnc(NC(=O)CCCOc3ccc(Cl)cc3)s2)c1`, the GI50 is 1.62 µM in assay [1], 21.2 µM in assay [2] and over 100 µM in assay [3]. Also, the results for the TGI in assay [1], in assay [2] and in assay [3] were 4.32 µM, over 100 µM and over 100 µM, respectively.
As for `CCOC(=O)C1C(=O)C(=O)N2CCc3c([nH]c4ccccc34)C12` (stereo not given), the TGI in assay [5] was over 100 µM.
On to `CC(C)c1nc(Cl)c(Cl)c(Cl)n1`, for which the TGI in assay [1] was determined as 17.2 µM; in assay [2], 23.2 µM; in assay [3], 27.1 µM; in assay [4], 19 µM.
Regarding `CCn1c(SC)nnc1-c1cc2c([nH]c3ccccc32)c(-c2cccc(O)c2)n1`, the figures for the GI50 in assay [1], in assay [2] and in assay [3] were 0.248 µM, 2.43 µM and 1.68 µM, respectively. In addition, the results for the TGI in assay [1], in assay [2] and in assay [3] were 0.851 µM, 15.9 µM and 6.31 µM, respectively.
For `CC(C)(CCc1nc2ccccc2[nH]1)C(=O)O`, the TGI in assay [1], in assay [2], in assay [3] and in assay [4] was over 100 µM in each case.
In the case of `Cc1cc(C2(c3cc(C)c(O)c4ncccc34)OC(=O)c3ccccc32)c2cccnc2c1O`, the TGI in assay [1] was over 100 µM; in assay [2], 22.7 µM; in assay [3] it was over 100 µM; in assay [4], over 100 µM. For the same compound, the results for the GI50 in assay [2] and in assay [3] were 0.0215 µM and 5.26 µM, respectively.
For the compound `COc1ccc(C[C@H](N)C(=O)N[C@@H]2[C@@H](CO)OC(n3cnc4c(N(C)C)ncnc43)[C@@H]2O)cc1` (stereo not given in full), the GI50 in assay [1] was 0.214 µM; in assay [2], 0.466 µM; in assay [3], 0.588 µM. Moreover, the TGI stood at 0.809 µM in assay [1], 1.22 µM in assay [2] and 1.83 µM in assay [3].
With `CN(C)C(=O)c1cc2cnc(Nc3ccc(N4CCNCC4)cn3)nc2n1C1CCCC1`, in assay [1], the GI50 is 12.7 µM and the TGI turned out to be 36.6 µM. Moreover, in assay [2], the GI50 is 8.48 µM and the TGI turned out to be 74.5 µM.
Turning to `N#Cc1c(N)nc(N2CCOCC2)c(C#N)c1-c1ccc(Cl)cc1Cl`, the GI50 is 5.75 µM in assay [1], 15.9 µM in assay [2] and 17.4 µM in assay [3]. Moreover, the TGI was determined as 21.9 µM in assay [1], 43.7 µM in assay [2] and 55.8 µM in assay [3].
Take `CS(=O)(=O)Nc1ccc(Nc2c3ccccc3nc3cc(Cl)ccc23)cc1`: the GI50 in assay [1] is 3.48 µM; in assay [2], 4.56 µM; in assay [3] it was 3.16 µM. The TGI was determined as 17.1 µM in assay [1], 19.8 µM in assay [2] and 20 µM in assay [3].
Take `OCCn1c(-c2ccncc2)c(-c2ccc(F)cc2)c2ncccc21`: the GI50 in assay [1], in assay [2] and in assay [3] was over 25 µM in each case. Moreover, the TGI in assay [1], in assay [2] and in assay [3] was over 25 µM in each case.
For the compound `COc1ccc(-c2ccc(/C=N/n3c(COc4ccc(Cl)c(C)c4)nn(CN4CCOCC4)c3=S)o2)c([N+](=O)[O-])c1`, in assay [1], the GI50 is 21 µM and the TGI worked out at 49.5 µM. Moreover, in assay [3], the GI50 is 34.6 µM and the TGI stood at 85 µM.
For `c1csc(-c2[nH]nc3c2CCc2ccccc2-3)c1`, the GI50 in assay [1] was 19.2 µM; in assay [2], 0.966 µM; in assay [3], 16.1 µM. Also, the results for the TGI in assay [1], in assay [2] and in assay [3] were 42.6 µM, 19.5 µM and 31.9 µM, respectively.
As to `CCNc1nc(-c2ccc(Cl)c(OC)c2)c(-c2ccnc(NCCNS(=O)(=O)c3ccc(Cl)cc3)n2)s1`, the GI50 was 3.02 µM in assay [1], 2.15 µM in assay [2] and 3.09 µM in assay [3]. In addition, the TGI is 40.6 µM in assay [1], 5.03 µM in assay [2] and 38 µM in assay [3].
